{
  "source": "the supplement of paper PMC10307832",
  "assay_in_all_cases": "relative viability (nuclei count vs DMSO), 5 days (fraction); higher = more cells survive",
  "key": {"[1]": {"system": "H3255", "summary_of_the_method": "(§1)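 Relative viability is defined as nuclei in treated wells over nuclei in vehicle wells. Duplicate plates were run and medians reported. Lung cancer cell lines in 1536-well plates were dosed by pin tool one day after seeding, with one drug or with a fixed anchor-drug dose plus five library-drug doses (not always all listed) in √10 steps, and nuclei were counted after 5 days.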"}, "[2]": {"system": "PC-14", "summary_of_the_method": "as §1"}, "[3]": {"system": "NCI-H727", "summary_of_the_method": "as §1"}, "[4]": {"system": "NCI-H460", "summary_of_the_method": "as §1"}, "[5]": {"system": "LCLC-103H", "summary_of_the_method": "as §1"}, "[6]": {"system": "NCI-H1793", "summary_of_the_method": "as §1"}, "[7]": {"system": "201T", "summary_of_the_method": "as §1"}, "[8]": {"system": "NCI-H2228", "summary_of_the_method": "as §1"}, "[9]": {"system": "LU99A", "summary_of_the_method": "as §1"}, "[10]": {"system": "SW 1573", "summary_of_the_method": "as §1"}, "[11]": {"system": "A-427", "summary_of_the_method": "as §1"}, "[12]": {"system": "NCI-H1650", "summary_of_the_method": "as §1"}, "[13]": {"system": "NCI-H2347", "summary_of_the_method": "as §1"}, "[14]": {"system": "LK-2", "summary_of_the_method": "as §1"}, "[15]": {"system": "HCC-44", "summary_of_the_method": "as §1"}, "[16]": {"system": "NCI-H23", "summary_of_the_method": "as §1"}, "[17]": {"system": "SW 900", "summary_of_the_method": "as §1"}, "[18]": {"system": "LC-2-ad", "summary_of_the_method": "as §1"}, "[19]": {"system": "COR-L23", "summary_of_the_method": "as §1"}},
  "data": [
    {"smiles": "CC(=O)O[C@@]12CO[C@@H]1C[C@H](O)[C@@]1(C)C(=O)[C@H](O)C3=C(C)[C@@H](OC(=O)[C@H](O)[C@@H](NC(=O)OC(C)(C)C)c4ccccc4)C[C@@](O)([C@@H](OC(=O)c4ccccc4)[C@H]21)C3(C)C", "note": "[Docetaxel] + CC(=O)c1c(C)c2cnc(Nc3ccc(N4CCNCC4)cn3)nc2n(C2CCCC2)c1=O [Palbociclib] (partner 0.5 µM)", "values": [
      {"measurement": "relative viability", "setting": "[1]; first compound 0.0002 µM", "result": 0.323},
      {"measurement": "relative viability", "setting": "[1]; first compound 0.000632 µM", "result": 0.304},
      {"measurement": "relative viability", "setting": "[1]; first compound 0.002 µM", "result": 0.296},
      {"measurement": "relative viability", "setting": "[1]; first compound 0.006325 µM", "result": 0.308},
      {"measurement": "relative viability", "setting": "[1]; first compound 0.02 µM", "result": 0.282},
      {"measurement": "relative viability", "setting": "[2]; first compound 0.0002 µM", "result": 0.466},
      {"measurement": "relative viability", "setting": "[2]; first compound 0.000632 µM", "result": 0.501},
      {"measurement": "relative viability", "setting": "[2]; first compound 0.002 µM", "result": 0.0828},
      {"measurement": "relative viability", "setting": "[2]; first compound 0.006325 µM", "result": 0.0351},
      {"measurement": "relative viability", "setting": "[2]; first compound 0.02 µM", "result": 0.0299},
      {"measurement": "relative viability", "setting": "[3]; first compound 0.0002 µM", "result": 0.618},
      {"measurement": "relative viability", "setting": "[3]; first compound 0.000632 µM", "result": 0.64},
      {"measurement": "relative viability", "setting": "[3]; first compound 0.002 µM", "result": 0.629},
      {"measurement": "relative viability", "setting": "[3]; first compound 0.006325 µM", "result": 0.538},
      {"measurement": "relative viability", "setting": "[3]; first compound 0.02 µM", "result": 0.446},
      {"measurement": "relative viability", "setting": "[4]; first compound 0.0002 µM", "result": 0.194},
      {"measurement": "relative viability", "setting": "[4]; first compound 0.000632 µM", "result": 0.0505},
      {"measurement": "relative viability", "setting": "[4]; first compound 0.002 µM", "result": 0.0387},
      {"measurement": "relative viability", "setting": "[4]; first compound 0.006325 µM", "result": 0.01},
      {"measurement": "relative viability", "setting": "[4]; first compound 0.02 µM", "result": 0.0125},
      {"measurement": "relative viability", "setting": "[5]; first compound 0.0002 µM", "result": 0.496},
      {"measurement": "relative viability", "setting": "[5]; first compound 0.000632 µM", "result": 0.532},
      {"measurement": "relative viability", "setting": "[5]; first compound 0.002 µM", "result": 0.5},
      {"measurement": "relative viability", "setting": "[5]; first compound 0.006325 µM", "result": 0.598},
      {"measurement": "relative viability", "setting": "[5]; first compound 0.02 µM", "result": 0.57},
      {"measurement": "relative viability", "setting": "[6]; first compound 0.0002 µM", "result": 0.242},
      {"measurement": "relative viability", "setting": "[6]; first compound 0.000632 µM", "result": 0.358},
      {"measurement": "relative viability", "setting": "[6]; first compound 0.002 µM", "result": 0.347},
      {"measurement": "relative viability", "setting": "[6]; first compound 0.006325 µM", "result": 0.266},
      {"measurement": "relative viability", "setting": "[6]; first compound 0.02 µM", "result": 0.208},
      {"measurement": "relative viability", "setting": "[7]; first compound 0.0002 µM", "result": 0.357},
      {"measurement": "relative viability", "setting": "[7]; first compound 0.000632 µM", "result": 0.369},
      {"measurement": "relative viability", "setting": "[7]; first compound 0.002 µM", "result": 0.367},
      {"measurement": "relative viability", "setting": "[7]; first compound 0.006325 µM", "result": 0.388},
      {"measurement": "relative viability", "setting": "[7]; first compound 0.02 µM", "result": 0.335},
      {"measurement": "relative viability", "setting": "[8]; first compound 0.0002 µM", "result": 0.52},
      {"measurement": "relative viability", "setting": "[8]; first compound 0.000632 µM", "result": 0.251},
      {"measurement": "relative viability", "setting": "[8]; first compound 0.002 µM", "result": 0.195},
      {"measurement": "relative viability", "setting": "[8]; first compound 0.006325 µM", "result": 0.137},
      {"measurement": "relative viability", "setting": "[8]; first compound 0.02 µM", "result": 0.129},
      {"measurement": "relative viability", "setting": "[9]; first compound 0.0002 µM", "result": 0.367},
      {"measurement": "relative viability", "setting": "[9]; first compound 0.000632 µM", "result": 0.36},
      {"measurement": "relative viability", "setting": "[9]; first compound 0.002 µM", "result": 0.265},
      {"measurement": "relative viability", "setting": "[9]; first compound 0.006325 µM", "result": 0.245},
      {"measurement": "relative viability", "setting": "[9]; first compound 0.02 µM", "result": 0.159},
      {"measurement": "relative viability", "setting": "[10]; first compound 0.0002 µM", "result": 0.316},
      {"measurement": "relative viability", "setting": "[10]; first compound 0.000632 µM", "result": 0.23},
      {"measurement": "relative viability", "setting": "[10]; first compound 0.002 µM", "result": 0.155},
      {"measurement": "relative viability", "setting": "[10]; first compound 0.006325 µM", "result": 0.196},
      {"measurement": "relative viability", "setting": "[10]; first compound 0.02 µM", "result": 0.0993},
      {"measurement": "relative viability", "setting": "[11]; first compound 0.0002 µM", "result": 0.522},
      {"measurement": "relative viability", "setting": "[11]; first compound 0.000632 µM", "result": 0.505},
      {"measurement": "relative viability", "setting": "[11]; first compound 0.002 µM", "result": 0.507},
      {"measurement": "relative viability", "setting": "[11]; first compound 0.006325 µM", "result": 0.372},
      {"measurement": "relative viability", "setting": "[11]; first compound 0.02 µM", "result": 0.241},
      {"measurement": "relative viability", "setting": "[12]; first compound 0.0002 µM", "result": 0.257},
      {"measurement": "relative viability", "setting": "[12]; first compound 0.000632 µM", "result": 0.263},
      {"measurement": "relative viability", "setting": "[12]; first compound 0.002 µM", "result": 0.207},
      {"measurement": "relative viability", "setting": "[12]; first compound 0.006325 µM", "result": 0.216},
      {"measurement": "relative viability", "setting": "[12]; first compound 0.02 µM", "result": 0.138},
      {"measurement": "relative viability", "setting": "[13]; first compound 0.0002 µM", "result": 0.375},
      {"measurement": "relative viability", "setting": "[13]; first compound 0.000632 µM", "result": 0.429},
      {"measurement": "relative viability", "setting": "[13]; first compound 0.002 µM", "result": 0.408},
      {"measurement": "relative viability", "setting": "[13]; first compound 0.006325 µM", "result": 0.373},
      {"measurement": "relative viability", "setting": "[13]; first compound 0.02 µM", "result": 0.343},
      {"measurement": "relative viability", "setting": "[14]; first compound 0.0002 µM", "result": 0.507},
      {"measurement": "relative viability", "setting": "[14]; first compound 0.000632 µM", "result": 0.411},
      {"measurement": "relative viability", "setting": "[14]; first compound 0.002 µM", "result": 0.18},
      {"measurement": "relative viability", "setting": "[14]; first compound 0.006325 µM", "result": 0.108},
      {"measurement": "relative viability", "setting": "[14]; first compound 0.02 µM", "result": 0.0873},
      {"measurement": "relative viability", "setting": "[15]; first compound 0.0002 µM", "result": 0.904},
      {"measurement": "relative viability", "setting": "[15]; first compound 0.000632 µM", "result": 1.01},
      {"measurement": "relative viability", "setting": "[15]; first compound 0.002 µM", "result": 0.968},
      {"measurement": "relative viability", "setting": "[15]; first compound 0.006325 µM", "result": 0.691},
      {"measurement": "relative viability", "setting": "[15]; first compound 0.02 µM", "result": 0.632},
      {"measurement": "relative viability", "setting": "[16]; first compound 0.0002 µM", "result": 0.562},
      {"measurement": "relative viability", "setting": "[16]; first compound 0.000632 µM", "result": 0.523},
      {"measurement": "relative viability", "setting": "[16]; first compound 0.002 µM", "result": 0.348},
      {"measurement": "relative viability", "setting": "[16]; first compound 0.006325 µM", "result": 0.168},
      {"measurement": "relative viability", "setting": "[16]; first compound 0.02 µM", "result": 0.163},
      {"measurement": "relative viability", "setting": "[17]; first compound 0.0002 µM", "result": 0.511},
      {"measurement": "relative viability", "setting": "[17]; first compound 0.000632 µM", "result": 0.308},
      {"measurement": "relative viability", "setting": "[17]; first compound 0.002 µM", "result": 0.354},
      {"measurement": "relative viability", "setting": "[17]; first compound 0.006325 µM", "result": 0.332},
      {"measurement": "relative viability", "setting": "[17]; first compound 0.02 µM", "result": 0.264},
      {"measurement": "relative viability", "setting": "[18]; first compound 0.0002 µM", "result": 0.438},
      {"measurement": "relative viability", "setting": "[18]; first compound 0.000632 µM", "result": 0.448},
      {"measurement": "relative viability", "setting": "[18]; first compound 0.002 µM", "result": 0.334},
      {"measurement": "relative viability", "setting": "[18]; first compound 0.006325 µM", "result": 0.284},
      {"measurement": "relative viability", "setting": "[18]; first compound 0.02 µM", "result": 0.233},
      {"measurement": "relative viability", "setting": "[19]; first compound 0.0002 µM", "result": 0.299},
      {"measurement": "relative viability", "setting": "[19]; first compound 0.000632 µM", "result": 0.262},
      {"measurement": "relative viability", "setting": "[19]; first compound 0.002 µM", "result": 0.142},
      {"measurement": "relative viability", "setting": "[19]; first compound 0.006325 µM", "result": 0.141},
      {"measurement": "relative viability", "setting": "[19]; first compound 0.02 µM", "result": 0.108}
    ]}
  ]
}
